A word on the IC50: it is the point on the concentration scale where inhibition reaches its midpoint. A high value points to lower potency.

Sequence of PD-L1 His protein / PD-1 Fc protein (Q9NZQ7 19-238 limits assumed): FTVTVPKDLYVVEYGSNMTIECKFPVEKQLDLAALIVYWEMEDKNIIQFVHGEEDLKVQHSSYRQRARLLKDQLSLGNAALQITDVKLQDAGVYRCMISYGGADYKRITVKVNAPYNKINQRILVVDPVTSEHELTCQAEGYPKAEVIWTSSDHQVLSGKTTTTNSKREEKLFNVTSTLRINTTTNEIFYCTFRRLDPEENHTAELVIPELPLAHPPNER

The target in this assay is PD-L1 His protein / PD-1 Fc protein (Homo sapiens, UniProt Q9NZQ7). Briefly: HTRF Assay (PD-1/PD-L1 interaction). The format is binding. As to conditions: PD-L1 His 6 nM, PD-1 Fc 6 nM. The method in brief:
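HTRF: PD-L1 His (6 nM final), compound (3-fold dilutions, 20 μM to 0.001 μM final) and PD-1 Fc (6 nM final) preincubated 15 min at room temperature. Anti-human IgG-XL665 and anti-6HIS Tb cryptate (mixed at 6.7 nM and 0.35 nM) then added for 1 h at room temperature before reading.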
Molecule `COC(=O)C1CN(Cc2cnc3cc(-c4cccc(-c5cccc(-c6ccc(CN7CC(C(=O)OC)C7)c(OC)n6)c5Cl)c4Cl)ncc3c2)C1` [Example 289, Methyl 1-((6-(2,2′-dichloro-3′-(3-((3-(methoxycarbonyl)azetidin-1-yl)methyl)-1,6-naphthyridin-7-yl)-[1,1′-biphenyl]-3-yl)-2-methoxypyridin-3-yl)methyl)azetidine-3-carboxylate] came in with an IC50 of 9 nM.

The molecule `COc1nc(-c2cccc(-c3cccc(-c4ccn5c(=O)c(C6=NCC(O)CN6)c(C)nc5c4)c3Cl)c2Cl)ccc1CNC[C@@H]1CCC(=O)N1` (stereo partly drawn) [Example 290, 8-(2,2′-dichloro-3′-(6-methoxy-5-(((((S)-5-oxopyrrolidin-2-yl)methyl)amino)methyl)pyridin-2-yl)-[1,1′-biphenyl]-3-yl)-3-(5-hydroxy-1,4,5,6-tetrahydropyrimidin-2-yl)-2-methyl-4H-pyrido[1,2-a]pyrimidin-4-one] displayed an IC50 of 0.4 nM.

As to `COC(=O)C1CN(Cc2cnc3cc(-c4cccc(-c5cccc(-c6ccc(CNC[C@@H]7CCC(=O)N7)c(OC)n6)c5Cl)c4Cl)cc(C)n3c2=O)C1` [Example 291, (S)-Methyl 1-((8-(2,2′-dichloro-3′-(6-methoxy-5-((((5-oxopyrrolidin-2-yl)methyl)amino)methyl)pyridin-2-yl)-[1,1′-biphenyl]-3-yl)-6-methyl-4-oxo-4H-pyrido[1,2-a]pyrimidin-3-yl)methyl)azetidine-3-carboxylate], it took 0.1 nM to reach half-maximal inhibition (IC50).

Turning to `CNC(=O)C[C@H](O)CNCc1cnc2cc(-c3cccc(-c4cccc(-c5ccc(CNC[C@@H]6CCC(=O)N6)c(OC)n5)c4Cl)c3Cl)ccn2c1=O` [Example 292, (3S)-4-[[8-[2-Chloro-3-[2-chloro-3-[6-methoxy-5-[[[(2S)-5-oxopyrrolidin-2-yl]methylamino]methyl]-2-pyridyl]phenyl]phenyl]-4-oxo-pyrido[1,2-a]pyrimidin-3-yl]methylamino]-3-hydroxy-N-methyl-butanamide], the half-inhibitory concentration (IC50) amounted to 0.1 nM.

Molecule `CNC(=O)C[C@H](O)CNCc1cnc2cc(-c3cccc(-c4cccc(-c5cc(F)c(CNC[C@@H]6CCC(=O)N6)c(OC)n5)c4Cl)c3Cl)ccn2c1=O` [Example 293, (3S)-4-[[8-[2-Chloro-3-[2-chloro-3-[4-fluoro-6-methoxy-5-[[[(2S)-5-oxopyrrolidin-2-yl]methylamino]methyl]-2-pyridyl]phenyl]phenyl]-4-oxo-pyrido[1,2-a]pyrimidin-3-yl]methylamino]-3-hydroxy-N-methyl-butanamide] had an IC50 of 0.1 nM.

Consider `COC(=O)CNCc1cnc2cc(-c3cccc(-c4cccc(-c5ccc(CNC[C@@H]6CCC(=O)N6)c(OC)n5)c4Cl)c3Cl)cc(C)n2c1=O` [Example 294, (S)-Methyl 2-(((8-(2,2′-dichloro-3′-(6-methoxy-5-((((5-oxopyrrolidin-2-yl)methyl)amino)methyl)pyridin-2-yl)-[1,1′-biphenyl]-3-yl)-6-methyl-4-oxo-4H-pyrido[1,2-a]pyrimidin-3-yl)methyl)amino)acetate], for which the IC50 was determined as 0.4 nM. This IC50 lies about 4-fold higher than the previous one.

`COC(=O)[C@H]1CCN(Cc2cnc3cc(-c4cccc(-c5cccc(-c6ccc(CNC[C@@H]7CCC(=O)N7)c(OC)n6)c5Cl)c4Cl)cc(C)n3c2=O)C1` [Example 295, (S)-Methyl 1-((8-(2,2′-dichloro-3′-(6-methoxy-5-(((((S)-5-oxopyrrolidin-2-yl)methyl)amino)methyl)pyridin-2-yl)-[1,1′-biphenyl]-3-yl)-6-methyl-4-oxo-4H-pyrido[1,2-a]pyrimidin-3-yl)methyl)pyrrolidine-3-carboxylate] registered an IC50 of 0.1 nM.

In the case of `COC(=O)C1CN(Cc2c(C)nc3cc(-c4cccc(-c5cccc(-c6ccc(CNC[C@@H]7CCC(=O)N7)c(OC)n6)c5Cl)c4Cl)ccn3c2=O)C1` [Example 296, (S)-Methyl 1-((8-(2,2′-dichloro-3′-(6-methoxy-5-((((5-oxopyrrolidin-2-yl)methyl)amino)methyl)pyridin-2-yl)-[1,1′-biphenyl]-3-yl)-2-methyl-4-oxo-4H-pyrido[1,2-a]pyrimidin-3-yl)methyl)azetidine-3-carboxylate], 0.5 nM corresponded to half-maximal inhibition (IC50).

`COc1nc(-c2cccc(-c3cccc(-c4ccn5c(=O)c(CNCC(F)F)cnc5c4)c3Cl)c2Cl)ccc1CNC[C@@H]1CCC(=O)N1` [Example 297, 8-[2-Chloro-3-[2-chloro-3-[6-methoxy-5-[[[(2S)-5-oxopyrrolidin-2-yl]methylamino]methyl]-2-pyridyl]phenyl]phenyl]-3-[(2,2-difluoroethylamino)methyl]pyrido[1,2-a]pyrimidin-4-one] came in with an IC50 of 320 nM. This IC50 is about 640-fold higher than that of the molecule before.

In the case of `COc1nc(-c2cccc(-c3cccc(-c4ccn5c(=O)c(CNC[C@H](C)N)cnc5c4)c3Cl)c2Cl)ccc1CNC[C@@H]1CCC(=O)N1` [Example 298, 3-[[[(2S)-2-Aminopropyl]amino]methyl]-8-[2-chloro-3-[2-chloro-3-[6-methoxy-5-[[[(2S)-5-oxopyrrolidin-2-yl]methylamino]methyl]-2-pyridyl]phenyl]phenyl]pyrido[1,2-a]pyrimidin-4-one], inhibition was half-maximal at 25 nM (IC50).

Turning to `COC(=O)N(C)CCN(C)Cc1ccc(-c2cccc(-c3cccc(-c4ccn5c(=O)c(CN(C)CCN(C)C(=O)OC)cnc5c4)c3Cl)c2Cl)nc1OC` [Example 299, methyl (2-(((8-(2,2′-dichloro-3′-(6-methoxy-5-(((2-((methoxycarbonyl)(methyl)amino)ethyl)(methyl)amino)methyl)pyridin-2-yl)-[1,1′-biphenyl]-3-yl)-4-oxo-4H-pyrido[1,2-a]pyrimidin-3-yl)methyl)(methyl)amino)ethyl)(methyl)carbamate], half-maximal inhibition (IC50) required 3000 nM.

In turn, `COc1nc(-c2cccc(-c3cccc(-c4ccn5c(=O)c(CNCC(F)(F)CO)cnc5c4)c3Cl)c2Cl)ccc1CNC[C@@H]1CCC(=O)N1` [Example 300, (S)-8-(2,2′-Dichloro-3′-(6-methoxy-5-((((5-oxopyrrolidin-2-yl)methyl)amino)methyl)pyridin-2-yl)-[1,1′-biphenyl]-3-yl)-3-(((2,2-difluoro-3-hydroxypropyl)amino)methyl)-4H-pyrido[1,2-a]pyrimidin-4-one] displayed an IC50 of 130 nM.

Molecule `COc1nc(-c2cccc(-c3cccc(-c4ccn5c(=O)c(CNCC6(CO)CC6)cnc5c4)c3Cl)c2Cl)ccc1CNC[C@@H]1CCC(=O)N1` [Example 301, (S)-8-(2,2′-Dichloro-3′-(6-methoxy-5-((((5-oxopyrrolidin-2-yl)methyl)amino)methyl)pyridin-2-yl)-[1,1′-biphenyl]-3-yl)-3-((((1-(hydroxymethyl)cyclopropyl)methyl)amino)methyl)-4H-pyrido[1,2-a]pyrimidin-4-one] gave an IC50 of 40 nM.

On to `COc1nc(-c2cccc(-c3cccc(-c4ccn5c(=O)c(CNC[C@H](C)OC)cnc5c4)c3Cl)c2Cl)ccc1CNC[C@@H]1CCC(=O)N1` [Example 302, 8-[2-Chloro-3-[2-chloro-3-[6-methoxy-5-[[[(2S)-5-oxopyrrolidin-2-yl]methylamino]methyl]-2-pyridyl]phenyl]phenyl]-3-[[[(2S)-2-methoxypropyl]amino]methyl]pyrido[1,2-a]pyrimidin-4-one], for which the IC50 is 35 nM.

The molecule `COc1nc(-c2cccc(-c3cccc(-c4ccn5c(=O)c(CNCC(F)(F)F)cnc5c4)c3Cl)c2Cl)ccc1CNC[C@@H]1CCC(=O)N1` [Example 303, 8-[2-Chloro-3-[2-chloro-3-[6-methoxy-5-[[[(2S)-5-oxopyrrolidin-2-yl]methylamino]methyl]-2-pyridyl]phenyl]phenyl]-3-[(2,2,2-trifluoroethylamino)methyl]pyrido[1,2-a]pyrimidin-4-one] showed a half-maximal inhibitory concentration (IC50) of 0.4 nM.

Regarding `COC(=O)C1CN(Cc2cnc3cc(-c4cccc(-c5cccc(-c6ccc(CNC[C@@H]7CCC(=O)N7)c(OC)n6)c5Cl)c4Cl)ncc3c2)C1` [Example 304, (S)-Methyl 1-((7-(2,2′-dichloro-3′-(6-methoxy-5-((((5-oxopyrrolidin-2-yl)methyl)amino)methyl)pyridin-2-yl)-[1,1′-biphenyl]-3-yl)-1,6-naphthyridin-3-yl)methyl)azetidine-3-carboxylate], the IC50 is 0.2 nM.

On to `COC(=O)CNCc1cnc2cc(-c3cccc(-c4cccc(-c5ccc(CNC[C@@H]6CCC(=O)N6)c(OC)n5)c4Cl)c3Cl)ncc2c1` [Example 305, (S)-Methyl 2-(((7-(2,2′-dichloro-3′-(6-methoxy-5-((((5-oxopyrrolidin-2-yl)methyl)amino)methyl)pyridin-2-yl)-[1,1′-biphenyl]-3-yl)-1,6-naphthyridin-3-yl)methyl)amino)acetate], for which the IC50 amounted to 0.4 nM.

In turn, `COc1nc(-c2cccc(-c3cccc(-c4ccn5c(=O)c(CNC[C@@H]6CCO6)cnc5c4)c3Cl)c2Cl)ccc1CNC[C@@H]1CCC(=O)N1` [Example 306, 8-[2-Chloro-3-[2-chloro-3-[6-methoxy-5-[[[(2S)-5-oxopyrrolidin-2-yl]methylamino]methyl]-2-pyridyl]phenyl]phenyl]-3-[[[(2S)-oxetan-2-yl]methylamino]methyl]pyrido[1,2-a]pyrimidin-4-one] registered a concentration for half-maximal inhibition (IC50) of 4.8 nM.

`COc1nc(-c2cccc(-c3cccc(-c4ccn5c(=O)c(CNC[C@@H]6CCCO6)cnc5c4)c3Cl)c2Cl)ccc1CNC[C@@H]1CCC(=O)N1` [Example 307, 8-[2-Chloro-3-[2-chloro-3-[6-methoxy-5-[[[(2S)-5-oxopyrrolidin-2-yl]methylamino]methyl]-2-pyridyl]phenyl]phenyl]-3-[[[(2S)-tetrahydrofuran-2-yl]methylamino]methyl]pyrido[1,2-a]pyrimidin-4-one] displayed an IC50 of 37 nM.

With `COc1nc(-c2cccc(-c3cccc(-c4cc(C)n5c(=O)c(CNCCO)cnc5c4)c3Cl)c2Cl)ccc1CNC[C@@H]1CCC(=O)N1` [Example 308, (S)-8-(2,2′-Dichloro-3′-(6-methoxy-5-((((5-oxopyrrolidin-2-yl)methyl)amino)methyl)pyridin-2-yl)-[1,1′-biphenyl]-3-yl)-3-(((2-hydroxyethyl)amino)methyl)-6-methyl-4H-pyrido[1,2-a]pyrimidin-4-one], the IC50 stood at 22 nM. Against the preceding molecule, the IC50 is about 1.7-fold lower.

The record behind these values is US20230143612A1 (Arbutus Biopharma Corporation, priority 2020, published 2023).
